This is an account of results in BindingDB's records for patent US11826435 (University of Saskatchewan, 2023).

Structures are written as SMILES.

This experiment deals with T1, Lysosomal acid glucosylceramidase (Homo sapiens, UniProt P04062).
T1 sequence (P04062 whole entry): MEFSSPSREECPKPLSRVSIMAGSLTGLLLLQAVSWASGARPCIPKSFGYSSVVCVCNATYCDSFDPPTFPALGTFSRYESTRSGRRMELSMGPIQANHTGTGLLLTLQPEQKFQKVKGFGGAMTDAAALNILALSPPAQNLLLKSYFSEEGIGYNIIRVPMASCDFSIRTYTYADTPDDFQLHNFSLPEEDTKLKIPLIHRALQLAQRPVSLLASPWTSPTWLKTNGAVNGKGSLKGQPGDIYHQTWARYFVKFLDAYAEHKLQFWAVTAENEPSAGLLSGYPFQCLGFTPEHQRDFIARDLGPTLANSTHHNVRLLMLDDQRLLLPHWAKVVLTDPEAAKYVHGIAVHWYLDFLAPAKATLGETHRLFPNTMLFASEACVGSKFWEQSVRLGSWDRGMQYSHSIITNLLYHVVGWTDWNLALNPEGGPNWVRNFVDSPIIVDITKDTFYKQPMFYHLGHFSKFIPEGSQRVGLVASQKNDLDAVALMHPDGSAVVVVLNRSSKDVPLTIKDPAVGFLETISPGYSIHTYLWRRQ
Kind of experiment: Enzyme Kinetics - Measuring Inactivation Rates of Inhibitors. The procedure: Inactivation solutions contained a final concentration of 16.55 nM of Cerezyme (Recombinant GCase) in 200 μL of Reaction Buffer (50 mM acetate, 0.2% v/v Triton X-100, 0.3% w/v sodium taurocholate, pH 5.5). The Cerezyme was collected from leftover patient vials and had approximately 8275 nM in the vial. […] Once the inhibitor was added this was considered time=0 minutes. Meanwhile a 96 well plate inside a Biotek Synergy 4 hybrid multi-mode reader at 37 C. was being incubated. In the wells of the plate were waiting a high concentration ([…]) of 2,4-DNP-β-Glc substrate in 180 μL of Reaction Buffer. As the inhibitor inactivation was occurring, 20 μL aliquots were taken from the inactivation solutions and diluted on the plate containing the substrate bringing the final concentration of the substrate to […]. Once all the aliquots were added the solution in the wells was measured for absorbance at 400 nm for 8 minutes. At this time the measurements were paused and the next set of aliquots were taken to see how residual enzyme activity changes over time.

Regarding `O=[N+]([O-])c1ccc(OC2O[C@H](CO)[C@@H](O)[C@H](O)[C@H]2F)c([N+](=O)[O-])c1` (some centres not stated) [US11826435, Compound 1.1], the half-inhibitory concentration (IC50) was greater than 1000 µM.
As to `O[C@H]1[C@H](O)[C@@H](O)[C@@H]2O[C@@H]2[C@@H]1O` [US11826435, Compound 1.2], the Ki is 140 µM.

Broadly, the IC50 is the concentration that inhibits the measured activity by half.
